According to patent US5753661A, “Fused benzo compounds containing a nitrogen heterocycle for the treatment of central nervous system disorders” (priority 1992, dated 1998):

Key:
5-HT1A = details: cited from earlier work
5-HT1A receptor [1] = biological target: T1, 5-HT1A receptor (Rattus norvegicus, UniProt P19327); experiment: Inhibition of 5-MeO-DMT-induced 5-HT syndrome in rats; type: in vivo, rat (male Wistar); parameters: Male Wistar rats (Mol:Wist) weighing 170-240 g are used; from tissue; host or cells: living male Wistar rat (Mol:Wist) (in vivo, endogenous receptor); details: sc, 5-MeO-DMT 5 mg/kg s.c., inhibition of piano playing
T1 sequence (P19327 1-422): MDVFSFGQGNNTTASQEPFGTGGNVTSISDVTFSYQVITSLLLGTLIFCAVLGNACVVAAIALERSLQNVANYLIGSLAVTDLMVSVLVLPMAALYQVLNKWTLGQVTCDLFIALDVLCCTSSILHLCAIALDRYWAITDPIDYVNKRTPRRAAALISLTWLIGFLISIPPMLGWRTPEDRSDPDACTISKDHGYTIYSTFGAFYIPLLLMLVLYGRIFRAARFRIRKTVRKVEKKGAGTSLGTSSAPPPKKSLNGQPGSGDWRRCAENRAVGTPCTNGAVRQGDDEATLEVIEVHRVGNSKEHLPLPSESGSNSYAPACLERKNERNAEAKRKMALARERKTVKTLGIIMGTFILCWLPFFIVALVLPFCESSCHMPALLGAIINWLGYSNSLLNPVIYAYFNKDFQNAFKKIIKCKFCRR
Excerpt: Inhibition of 5-MeO-DMT-Induced 5-HT Syndrome in Rats
The so-called 5-HT syndrome is a characteristic pattern of behaviours which are induced by 5-HT agonists with effects on 5-HT, possibly 5-HT1A receptors (Smith, L. M. and Peroutka, S. J., Pharmacol. Biochem. & Behaviour, 1986, 24, 1513; Tricklebank, M. et al, Eur. J. Pharmacol. 1985, 117, 15). This test is a test for determining the antagonist effects of a test compound on 5-HT1A receptors in vivo by measuring the ability to inhibit 5-MeO-DMT induced 5-HT syndrome.
Male Wistar rats (Mol:Wist) weighing 170-240 g are used. Test substance is injected s.c. before 5-MeO-DMT 5 mg/kg, s.c. Four rats are used for each dose. A control group pretreated with saline is included each test day. 10, 15 and 20 min later the rats are observed for presence of serotonin (5-HT) syndrome. The following symptoms are recorded: 1) forepaw treading ("piano playing"), 2) head weaving and 3) hindleg abduction. Furthermore, flat motility is scored. Each part of the syndrome is scored as follows: marked effect (score 2), weak syndrome (score 1) and no effect (score 0). The scores of the three observation periods are added. Thus the maximum obtainable score for four rats is 24. The effect of the test substance is expressed as percent inhibition relative to the control group.
The percent inhibition of the piano playing syndrome is used as the response and ED50 value are calculated by log-probit analysis.

5-HT1A receptor [2] = biological target: T1, 5-HT1A receptor; experiment: Antagonism of the discriminative stimulus properties induced by 8-OH-DPAT in rats (8-OH-DPAT cue); type: in vivo, rat (male Wistar); parameters: from tissue; host or cells: living male Wistar rat (in vivo, endogenous receptor); details: sc, before 8-OH-DPAT 0.4 mg/kg i.p.
Procedure: Antagonism of the Discriminative Stimulus Properties Induced by 8-OH-DPAT in Rats.
This test is used to determine the 5-HT1A receptor antagonistic effect of a test compound in vivo. A related method is described by Tricklebank, M. D., et al, Eur. J. Pharmacol, 1987, 133, 47-56; Amt, J. Pharmacology & Toxicology, 1989, 64, 165.
Male Wistar rats are trained to discriminate between 8-OH-DPAT (0.4 mg/kg, i.p., 15 min pretreatment) and physiological saline in operant chambers equipped with two response levers. Between the levers a dipper is placed, where water rewards (0.1 ml) are presented. The rats are water deprived for at least 24 h and work in a fixed ratio (FR) schedule (final FR=32).
Following 8-OH-DPAT administration, responding is reinforced only on a designated (drug) lever, whereas responding on the opposite lever has no consequences. Following saline administration, responding is reinforced on the lever opposite to the drug lever. Drug and saline trials alternate randomly between days. The level of discrimination accuracy is expressed as the per cent drug responses and is calculated as the number of correct responses ×100 divided by the sum of the correct and incorrect responses before the first reward. The time to the first reward is also recorded as a measure of reaction time. When stable accuracy (mean correct responding=90%; individual rats at least 75% correct responding) is obtained test sessions are included between training days. Test compound is injected s.c. or p.o. at appropriate time before 8-OH-DPAT and the test begins 15 min after 8-OH-DPAT injection. The test trial is terminated when a total of 32 responses are made on either lever or when 20 min have elapsed. No reward is given and the rats have free access to water for 20-30 min after the test. The effects are expressed as per cent inhibition of drug responding. Only results from rats making at least 10 responses on one lever are included in data analysis. Furthermore, only test sessions in which at least half of the rats respond are included.
The per cent inhibition of drug response obtained for each dose of test compound is used to calculate ED50 values by log-probit analysis.

5-HT1A receptor [3] = biological target: T1, 5-HT1A receptor; experiment: Generalization to the discriminative stimulus properties induced by 8-OH-DPAT in rats (8-OH-DPAT cue, agonism); type: in vivo, rat (male Wistar); parameters: from tissue; host or cells: living male Wistar rat (in vivo, endogenous receptor); details: for ED50: rat, sc, usually 30 or 45 min before test; for agonist activity/efficacy in words, 8-OH-DPAT cue: 8-OH-DPAT cue model, s.c.
Excerpt: Generalization to the Discriminative Stimulus Properties Induced by 8-OH-DPAT in Rats
This test is used to determine the 5-HT1A receptor agonistic effect of a test compound in vivo. A related method is described by Tricklebank, M. D., supra; Amt, J. Pharmacology & Toxicology, 1989, 64, 165.
The per cent drug responce obtained for each dose of test compound is used to calculate ED50 values by log-probit analysis.

5-HT1A receptor [4] = biological target: T1, 5-HT1A receptor; experiment: Inhibition of 3H-8-OH-DPAT binding to serotonin 5-HT1A receptors in rat brain in vitro; parameters: 5-HT1A receptors in membranes from rat brain minus cerebellum; from tissue; host or cells: rat brain minus cerebellum, membranes; details: 3H-8-OH-DPAT 1 nM; membranes from rat brain minus cerebellum; read-out: IC50, 3H 8-OH-DPAT binding
Procedure: Inhibition of ^3 H-8-OH-DPAT Binding to Serotonin 5-HT1A Receptors in Rat Brain in vitro.
By this method the inhibition by drugs of the binding of the 5-HT1A agonist 3H-8-OH-DPAT (1 nM) to 5-HT1A receptors in membranes from rat brain minus cerebellum is determined in vitro . Accordingly, this is a test for affinity for the 5-HT1A receptor. The assay was performed as described by Hyttel et al., Drug Dev. Res. 1988, 15, 389-404.

| ED50 (5-HT1A receptor [1]) [µmol/kg] | ED50 (5-HT1A receptor [2]) [µmol/kg] | ED50 (5-HT1A receptor [3]) [µmol/kg] | IC50 (5-HT1A receptor [4]) [nM] | agonist activity/efficacy in words, 8-OH-DPAT cue (5-HT1A receptor [3]) | response, 8-OH-DPAT cue agonism (5-HT1A receptor [3]; at 0.04-10 μmol/kg, s.c. (note a)) | response, 8-OH-DPAT cue agonism (5-HT1A receptor [3]; at 0.6-2.4 μmol/kg, s.c. (note c)) | SMILES | 5-HT1A agonist activity, in words (5-HT1A) | antidepressant and anxiolytic effects, in words (5-HT1A; Schipper et al, Human Psychopharm., 1991) |
| --- | --- | --- | --- | --- | --- | --- | --- | --- | --- |
| – | – | – | – | – | – | – | O=C1CC2(CCCC2)CC(=O)N1CCCCN1CCN(c2ncccn2)CC1 [Buspirone, 8-[4-[4-(2-pyrimidyl)-1-piperazinyl]butyl]-8-azaspiro[4,5]decane-7,9-dione] | 5-HT1A partial agonists | – |
| 2.3 | > 0.62 | 0.034 | 2.6 | – | – | – | O=S(=O)(CCCN1CCN(c2cccc3c2OCCO3)CC1)C1CCCCC1 [Compound 1a, 1-(1,4-Benzodioxan-5-yl)-4-(3-cyclohexylsulfonyl-1-propyl)piperazine] | – | – |
| 5.1 | > 10 | – | 23 | partial agonist | 30-75% | – | CC(C)S(=O)(=O)CCCN1CCN(c2cccc3c2OCCO3)CC1 [Compound 1e, 1-(1,4-Benzodioxan-5-yl)-4-(3-isopropylsulfonyl-1-propyl)piperazine] | – | – |
| 6.6 | > 11 | 3.1 | 16 | – | – | – | O=C1N(CCCN2CCN(c3cccc4c3OCCO4)CC2)CCN1c1ccccc1 [Compound 2a, 1-[3-[4-(1,4-Benzodioxan-5-yl)-1-piperazinyl]-1-propyl]-3-phenyl-2-imidazolidinone] | – | – |
| 8.9 | 2.7 | > 11 | 18 | – | – | – | O=C1N(CCN2CCN(c3cccc4c3OCCO4)CC2)CCN1C1CCCC1 [Compound 2b, 1-[2-[4-(1,4-Benzodioxan-5-yl)-1-piperazinyl]ethyl]-3-cyclopentyl-2-imidazolidinone] | – | – |
| 15 | > 2.6 | 0.76 | 13 | – | – | – | O=C1N(CCN2CCN(c3cccc4c3OCCO4)CC2)CCN1c1ccccc1 [Compound 2c, 1-[2-[4-(1,4-Benzodioxan-5-yl)-1-piperazinyl]ethyl]-3-phenyl-2-imidazolidinone] | – | – |
| 4.7 | 6.1 | – | 0.45 | partial agonist | – | 20-60% | O=C1N(CCCCN2CCN(c3cccc4c3OCCO4)CC2)CCN1C1CCCCC1 [Compound 2e, 1-[4-[4-(1,4-Benzodioxan-5-yl)-1-piperazinyl]-1-butyl]-3-cyclohexyl-2-imidazolidione] | – | – |
| 10 | > 11 | 1.6 | 37 | – | – | – | O=C1N(CCCN2CCN(c3cccc4c3OCC4)CC2)CCN1c1ccccc1 [Compound 2g, 1-[3-[4-(2,3-Dihydrobenzofuran-7-yl)-1-piperazinyl]-1-propyl]-3-phenyl-2-imidazolidinone] | – | – |
| 9 | 23 | 27 | 51 | – | – | – | CC(C)N1CCN(CCN2CCN(c3cccc4c3OCCO4)CC2)C1=O [Compound 2o, 1-[2-[4-(1,4-Benzodioxan-5-yl)-1-piperazinyl]ethyl]-3-isopropyl-2-imidazolidinone] | – | – |
| > 44 | – | 0.38 | 4 | – | – | – | O=C(NCCN1CCN(c2cccc3c2OCC(CO)O3)CC1)c1ccc(F)cc1 (stereo not shown) [Flesinoxane, 4-fluoro-N-[2-(4-(2-hydroxymethyl-1,4-benzodioxan-5-yl)piperazine-1-yl)ethyl]benzamide, reference compound] | high efficacy 5-HT1A agonist | antidepressant and anxiolytic effects |
